Measurements from the supplement of paper PMC10307832.

Assays:
Experiment in all cases: relative viability (nuclei count vs DMSO), 5 days (fraction); higher = more cells survive
Avagacestat + Tozasertib = compound: NC(=O)[C@@H](CCC(F)(F)F)N(Cc1ccc(-c2ncon2)cc1F)S(=O)(=O)c1ccc(Cl)cc1 [Avagacestat] + Cc1cc(Nc2cc(N3CCN(C)CC3)nc(Sc3ccc(NC(=O)C4CC4)cc3)n2)n[nH]1 [Tozasertib] (partner 0.1 µM)
Method in brief: (§1)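 Values are medians from duplicate plates. Each reflects relative viability, defined as the nuclei count of treated wells over that of vehicle wells. Lung cancer cell lines in 1536-well plates were pin-tool dosed one day after seeding with one drug alone or with a fixed anchor-drug dose plus five library-drug doses (not always all listed) in √10 steps, then fixed, stained and imaged at 4× after 5 days.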

Avagacestat + Dasatinib = compound: NC(=O)[C@@H](CCC(F)(F)F)N(Cc1ccc(-c2ncon2)cc1F)S(=O)(=O)c1ccc(Cl)cc1 [Avagacestat] + Cc1nc(Nc2ncc(C(=O)Nc3c(C)cccc3Cl)s2)cc(N2CCN(CCO)CC2)n1 [Dasatinib] (partner 0.075 µM)
Method in brief: as §1

Avagacestat + Alpelisib = compound: NC(=O)[C@@H](CCC(F)(F)F)N(Cc1ccc(-c2ncon2)cc1F)S(=O)(=O)c1ccc(Cl)cc1 [Avagacestat] + Cc1nc(NC(=O)N2CCC[C@H]2C(N)=O)sc1-c1ccnc(C(C)(C)C(F)(F)F)c1 [Alpelisib] (partner 2 µM)
Method in brief: as §1

Avagacestat + Luminespib = compound: NC(=O)[C@@H](CCC(F)(F)F)N(Cc1ccc(-c2ncon2)cc1F)S(=O)(=O)c1ccc(Cl)cc1 [Avagacestat] + CCNC(=O)c1noc(-c2cc(C(C)C)c(O)cc2O)c1-c1ccc(CN2CCOCC2)cc1 [Luminespib] (partner 0.01 µM)
Method in brief: as §1

Cell Line	relative viability (Avagacestat + Tozasertib; first compound 0.08 µM)	relative viability (Avagacestat + Tozasertib; first compound 0.253 µM)	relative viability (Avagacestat + Tozasertib; first compound 0.8 µM)	relative viability (Avagacestat + Tozasertib; first compound 2.53 µM)	relative viability (Avagacestat + Tozasertib; first compound 8 µM)	relative viability (Avagacestat + Dasatinib; first compound 0.08 µM)	relative viability (Avagacestat + Dasatinib; first compound 0.253 µM)	relative viability (Avagacestat + Dasatinib; first compound 0.8 µM)	relative viability (Avagacestat + Dasatinib; first compound 2.53 µM)	relative viability (Avagacestat + Dasatinib; first compound 8 µM)	relative viability (Avagacestat + Alpelisib; first compound 0.08 µM)	relative viability (Avagacestat + Alpelisib; first compound 0.253 µM)	relative viability (Avagacestat + Alpelisib; first compound 0.8 µM)	relative viability (Avagacestat + Alpelisib; first compound 2.53 µM)	relative viability (Avagacestat + Alpelisib; first compound 8 µM)	relative viability (Avagacestat + Luminespib; first compound 0.08 µM)	relative viability (Avagacestat + Luminespib; first compound 0.253 µM)	relative viability (Avagacestat + Luminespib; first compound 0.8 µM)	relative viability (Avagacestat + Luminespib; first compound 2.53 µM)	relative viability (Avagacestat + Luminespib; first compound 8 µM)
201T	0.967	1.06	0.922	0.843	0.9	0.668	0.599	0.565	0.586	0.608	1.04	1.02	1.04	0.892	0.887	1.11	1.05	1	0.964	1.04
A-427	0.203	0.185	0.206	0.198	0.198	0.785	0.859	0.755	0.935	0.649	1.14	1.2	1.1	1.07	1.14	0.91	1.13	1.05	0.81	0.821
ABC-1	0.164	0.16	0.178	0.187	0.179	0.648	0.644	0.644	0.725	0.59	1.11	1.02	1.26	1.11	1.29	0.387	0.583	0.801	0.359	0.555
BEN	0.512	0.504	0.526	0.449	0.49	0.382	0.325	0.389	0.37	0.326	1.13	1.01	0.944	0.774	1.07	0.396	0.308	0.675	0.326	0.238
CAL-12T	0.368	0.358	0.385	0.24	0.278	0.376	0.414	0.418	0.386	0.253	1.39	1.74	1.27	1.17	1.24	0.351	0.921	0.427	0.364	0.276
COR-L23	0.363	0.152	0.171	0.173	0.149	0.507	0.471	0.781	0.457	0.359	0.982	1.01	0.788	0.743	0.568	1.08	0.803	1.08	0.642	0.512
COR-L 105	0.379	0.458	0.41	0.334	0.359	0.281	0.307	0.345	0.247	0.279	1.14	0.917	0.976	0.679	0.612	1.02	1.01	0.798	0.542	0.754
Calu-6	–	–	–	–	–	–	–	–	–	–	1.18	1.16	1.12	1.12	0.993	–	–	–	–	–
ChaGo-K-1	0.198	0.238	0.22	0.212	0.226	0.616	0.641	0.628	0.551	0.608	–	–	–	–	–	0.551	0.718	0.747	0.551	0.595
EKVX	0.401	0.373	0.382	0.34	0.287	0.621	0.491	0.512	0.473	0.382	0.974	0.971	0.878	0.832	0.811	0.798	0.973	0.859	0.809	0.751
EMC-BAC-2	0.278	0.299	0.31	0.255	0.322	0.342	0.298	0.301	0.292	0.308	0.897	0.81	0.748	0.653	0.717	1.33	1.4	1.29	1.12	1.1
EPLC-272H	0.186	0.48	0.152	0.249	0.203	0.328	0.339	0.289	0.348	0.266	1.05	1	1.02	1.09	0.865	0.21	0.267	0.139	0.153	0.304
H3255	0.529	0.55	0.825	0.556	0.693	0.362	0.347	0.57	0.379	0.313	0.759	0.736	0.836	0.678	0.741	1.02	0.951	0.941	1.05	0.847
HARA	0.0944	0.0986	0.0937	0.0995	0.145	0.234	0.254	0.228	0.262	0.239	0.914	0.783	0.929	0.782	0.567	0.783	0.201	0.614	0.536	0.87
HCC-15	0.404	0.461	0.434	0.337	0.167	0.685	0.642	0.652	0.608	0.539	1.01	1.05	0.93	0.861	0.802	0.442	0.338	0.309	0.325	0.284
HCC-44	1.03	1.27	0.976	0.146	0.755	–	–	–	–	–	0.939	0.746	0.8	0.667	0.645	1.21	1.36	1.14	0.885	1.25
HCC-78	0.404	0.473	0.208	0.396	0.377	0.452	0.273	0.343	0.327	0.331	0.299	0.358	0.347	0.269	0.321	–	–	–	–	–

Cell Line	relative viability (Avagacestat + Tozasertib; first compound 0.08 µM)	relative viability (Avagacestat + Tozasertib; first compound 0.253 µM)	relative viability (Avagacestat + Tozasertib; first compound 0.8 µM)	relative viability (Avagacestat + Tozasertib; first compound 2.53 µM)	relative viability (Avagacestat + Tozasertib; first compound 8 µM)	relative viability (Avagacestat + Dasatinib; first compound 0.08 µM)	relative viability (Avagacestat + Dasatinib; first compound 0.253 µM)	relative viability (Avagacestat + Dasatinib; first compound 0.8 µM)	relative viability (Avagacestat + Dasatinib; first compound 2.53 µM)	relative viability (Avagacestat + Dasatinib; first compound 8 µM)	relative viability (Avagacestat + Alpelisib; first compound 0.08 µM)	relative viability (Avagacestat + Alpelisib; first compound 0.253 µM)	relative viability (Avagacestat + Alpelisib; first compound 0.8 µM)	relative viability (Avagacestat + Alpelisib; first compound 2.53 µM)	relative viability (Avagacestat + Alpelisib; first compound 8 µM)	relative viability (Avagacestat + Luminespib; first compound 0.08 µM)	relative viability (Avagacestat + Luminespib; first compound 0.253 µM)	relative viability (Avagacestat + Luminespib; first compound 0.8 µM)	relative viability (Avagacestat + Luminespib; first compound 2.53 µM)	relative viability (Avagacestat + Luminespib; first compound 8 µM)
HCC-366	0.0969	0.172	0.0909	0.0683	0.0694	0.842	0.981	0.676	0.544	0.601	0.749	0.679	0.565	0.361	0.308	–	–	–	–	–
HCC-827	0.452	0.434	0.506	0.381	0.462	0.313	0.277	0.226	0.184	0.244	1.04	0.984	1.05	0.874	0.972	0.711	0.927	0.586	0.324	0.578
HOP-62	0.357	0.353	0.373	0.363	0.335	0.701	0.63	0.626	0.502	0.484	1	0.908	0.971	0.94	0.889	0.988	1.09	1.01	0.889	0.83
IA-LM	–	–	–	–	–	–	–	–	–	–	1.09	1.62	1.74	1.43	1.16	–	–	–	–	–
LC-2-ad	0.453	0.384	0.427	0.197	0.367	0.558	0.489	0.646	0.447	0.343	0.798	0.707	0.769	0.81	0.788	1.18	1.05	1.18	0.948	1.14
LCLC-97TM1	0.221	0.206	0.208	0.183	0.181	0.945	0.86	0.757	0.866	0.706	0.265	0.224	0.185	0.186	0.218	0.849	1.03	0.837	0.705	0.718
LCLC-103H	0.58	0.55	0.512	0.391	0.449	0.456	0.46	0.508	0.368	0.678	0.983	0.939	1.01	0.842	0.753	1.1	1.27	0.979	0.808	0.851
NCI-H522	0.559	0.593	0.579	0.517	0.479	0.942	0.886	0.861	0.927	1.07	–	–	–	–	–	1.08	1.12	1.03	1.21	1.15
NCI-H1299	–	–	–	–	–	–	–	–	–	–	1.1	1.18	1.08	1.02	0.886	–	–	–	–	–
NCI-H1563	–	–	–	–	–	0.53	0.455	0.484	0.453	0.442	0.925	0.989	0.937	0.934	0.8	0.552	0.558	0.575	0.503	0.543
NCI-H1648	0.374	0.464	0.371	0.296	0.298	–	–	–	–	–	–	–	–	–	–	–	–	–	–	–
NCI-H1650	0.47	0.378	0.468	0.393	0.333	0.37	0.35	0.272	0.304	0.346	–	–	–	–	–	0.222	0.203	0.212	0.202	0.193
NCI-H1703	–	–	–	–	–	–	–	–	–	–	0.444	0.387	0.405	0.378	0.385	–	–	–	–	–
NCI-H1792	–	–	–	–	–	1.33	–	0.666	–	0.706	0.871	0.618	0.774	0.541	0.562	0.649	0.478	0.522	0.414	0.33
NCI-H2342	0.593	0.48	0.57	0.493	0.527	0.344	0.341	0.334	0.31	0.302	–	–	–	–	–	0.742	0.703	0.648	0.709	0.663
SW 900	0.726	0.637	0.578	0.487	0.353	0.821	0.599	0.547	0.848	0.558	–	–	–	–	–	0.176	0.168	0.173	0.153	0.177
